Laboratory results as given in patent US20230058316A1, “PEGYLATED IGE-DEPENDENT HISTAMINE-RELEASING FACTOR (HRF)-BINDING PEPTIDE AND USE THEREOF” (EWHA UNIVERSITY - INDUSTRY COLLABORATION FOUNDATION, priority 2020, published 2023).
Where no end group is shown, it is not given here.

Key:
[1] = Metabolic stability in human liver microsomes; conditions: pH 7.4
Method: (§2) Upon completion of the reaction, cold acetonitrile containing internal standard was added, and then deproteinization was carried out. The reactant was centrifuged at 4° C., 4000 rpm for 15 minutes, and the supernatant was analyzed by LC-MS/MS. The system was verified with buspirone, a reference material.

[2] = Metabolic stability in mouse liver microsomes; conditions: NADPH, 37° C., 30 minutes
Method: as §2

recombinant HRF = target: T1, recombinant HRF (Homo sapiens, UniProt P13693); assay: Inhibition of IL-8 secretion by HRF in BEAS-2B cells; type: cell-based; conditions: FIG. 7; for inhibition of IL-8 secretion by HRF: 0.75 nM and 7.5 nM with 75 nM recombinant HRF, 24 hours
T1 sequence (P13693 1-172): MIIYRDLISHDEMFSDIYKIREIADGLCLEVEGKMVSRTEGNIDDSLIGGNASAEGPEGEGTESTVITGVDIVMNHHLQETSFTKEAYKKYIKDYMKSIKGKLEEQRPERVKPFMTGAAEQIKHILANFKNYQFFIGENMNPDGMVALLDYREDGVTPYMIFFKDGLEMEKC
Method: The PEG (5000)-dTBP2 prepared in Preparative Example 4, Example 1, and Example 2 was diluted with 1% penicillin streptomycin/DMEM for each concentration (0, 0.75 nM, 7.5 nM), incubated with 75 nM recombinant HRF at room temperature for 15 minutes, and then treated to BEAS-2B cells grown to about 70% on a 48 well plate. The cells were cultured in a 37° C., 5% CO2 incubator for 24 hours, and the supernatant was obtained. Then, the released IL-8 was quantified by enzyme immunosorbent detection (Biolegend). The IL-8 enzyme immunosorbent detection was performed according to the protocol of Biolegend Human IL-8 ELISA kit with pre coated plates (431508). 300 μl of wash buffer was added to each well of the plate pre-coated with the IL-8 antibody, and the plate was washed a total of 4 times. Then, 50 μl of the supernatant was added to each well of the plate and left at room temperature for 2 hours. After 2 hours, the supernatant in the plate was removed, and 300 μl of wash buffer was added to each well of the plate. The plate was washed a total of 4 times, and then 100 μl of a detection antibody solution was added to each well of the plate and left at room temperature for 1 hour. Thereafter, 300 μl of wash buffer was added to each well of the plate, and the plate was washed a total of 4 times. Then, 100 μl of Avidin-HRP A solution was added to each well of the plate and left at room temperature for 30 minutes. Finally, 300 μl of wash buffer was added to each well of the plate, and after washing the plate 5 times, 100 μl of substrate solution F was added to each well of the plate and left at room temperature in a dark room. 100 μl of a stop solution was additionally added to each well of the plate, and absorbance was measured at 450 nm and 570 nm. The wash buffer, detection antibody solution, avidin HRP A solution, substrate solution F, and stop solution were all used as reagents included in a kit (431508, Biolegend).

IL-5 = IL-5 secretion in bronchoalveolar lavage fluid, ovalbumin-induced bronchial asthma and rhinitis mouse model; type: in vivo; conditions: 1 mg/kg IP
Method: (§1) A bronchial asthma and rhinitis animal model was prepared by the following method. An ovalbumin solution was prepared by dissolving ovalbumin in an aluminum hydroxide solution (1 mg/ml) 28 and 14 days before the start of inducing bronchial asthma and rhinitis, and 200 μl of the solution was intraperitoneally injected into each mouse for sensitization. After 14 days of final sensitization, 20 μl of saline/PBS (normal control; NC) or 20 μl of 10 mg/mL ovalbumin solution (positive control; PC) was instilled into the nasal cavity of each lightly anesthetized mouse 4 times every other day for 8 days to induce bronchial asthma and rhinitis.
After the end of the experiment, the amount of IL-5 in the supernatant obtained by centrifuging bronchoalveolar lavage fluid was measured and quantified by enzyme immunosorbent detection using mouse IL-5 ELISA kit (Biolegend, USA).
Next, in order to confirm whether there is an effect of inhibiting IL-5 secretion even when administered in a small number of times, the dTBP2 of Preparative Example 4 and Example 3 was administered to the mouse model of Example 4-1 through intraperitoneal injection once in 4 days for a total of 2 times for 8 days inducing bronchial asthma and rhinitis. The amount of IL-5 was measured and quantified by the enzyme immunosorbent detection method in the same manner.
In addition, the dTBP2 of Preparative Example 4 and Example 3 was administered to the mouse model of Example 4-1 through intraperitoneal injection once on the 1st day of 8 days inducing bronchial asthma and rhinitis. The amount of IL-5 was measured and quantified by the enzyme immunosorbent detection method in the same manner.
The amount of IL-5 was measured and quantified by the enzyme immunosorbent detection method in the same manner.

[3] = Pharmacokinetic analysis in ICR mice; type: in vivo; conditions: mouse, plasma, IV, 10 mg/kg
Method: The dTBP2 of Preparative Examples 4 and Example 3 was added to a solution prepared in DMSO:PEG400:DW=5:55:40, and this was administered at the concentration of 5 mL/kg. Blood samples were taken at 0.083, 0.25, 0.5, 1, 2, 4, and 8 hours post injection. The blood was centrifuged at 4° C., 3000 rpm for 10 minutes, to which cold acetonitrile containing internal standard was added in an amount 4 times the plasma component, and then deproteinization was carried out. After centrifugation again at 4° C., 13000 rpm for 10 minutes, the supernatant was collected and analyzed by Agilent 6460 LC-MS/MS. Pharmacokinetic analysis was performed with Phoenix WinNonlin (Pharsight ver 6.4, USA) using a non-compartmental analysis model.

ovalbumin-specific IgE = assay: Ovalbumin-specific IgE secretion in mouse plasma, ovalbumin-induced bronchial asthma and rhinitis mouse model; type: in vivo; conditions: plasma, 1 mg/kg IP, 8 times daily for 8 days
Method: as §1
Ovalbumin is an allergy-causing substance mainly contained in egg whites. […] After completion of the experiment, the mouse was anesthetized by injecting a mixture of zoletil (250 mg/kg) and rompun (50 mg/kg) intraperitoneally, and the chest was opened. 0.8 mL blood was collected by puncture of the heart with a 26 gauge 1 mL syringe coated with heparin. The collected blood was centrifuged at 4° C., 3000 rpm for 10 minutes to obtain plasma components. The amount of ovalbumin-specific IgE in the blood serum obtained through the above process was measured and quantified by enzyme immunosorbent detection method using mouse OVA specific IgE kit (Biolegend, USA).
Next, in order to confirm whether there is an effect of inhibiting ovalbumin-specific IgE secretion in plasma even when administered in a small number of times, the dTBP2 of Preparative Example 4 and Example 3 was administered to the mouse model of Example 4-1 through intraperitoneal injection once in 4 days for a total of 2 times for 8 days inducing bronchial asthma and rhinitis. The amount of ovalbumin-specific IgE secretion was measured and quantified by the enzyme immunosorbent detection method in the same manner.
In addition, the dTBP2 of Preparative Example 4 and Example 3 was administered to the mouse model of Example 4-1 through intraperitoneal injection once on the 1st day of 8 days inducing bronchial asthma and rhinitis. The amount of ovalbumin-specific IgE secretion was measured and quantified by the enzyme immunosorbent detection method in the same manner.
The amount of ovalbumin-specific IgE secretion was measured and quantified by the enzyme immunosorbent detection method in the same manner.

IL-4 = IL-4 secretion in bronchoalveolar lavage fluid, ovalbumin-induced bronchial asthma and rhinitis mouse model; type: in vivo; conditions: 1 mg/kg IP
Method: as §1
After the end of the experiment, the amount of IL-4 in the supernatant obtained by centrifuging bronchoalveolar lavage fluid was measured and quantified by enzyme immunosorbent detection using mouse IL-4 ELISA kit (Biolegend, USA).
Next, in order to confirm whether there is an effect of inhibiting IL-4 secretion even when administered in a small number of times, the dTBP2 of Preparative Example 4 and Example 3 was administered to the mouse model of Example 4-1 through intraperitoneal injection once in 4 days for a total of 2 times for 8 days inducing bronchial asthma and rhinitis. The amount of IL-4 was measured and quantified by the enzyme immunosorbent detection method in the same manner.
In addition, the dTBP2 of Preparative Example 4 and Example 3 was administered to the mouse model of Example 4-1 through intraperitoneal injection once on the 1st day of 8 days inducing bronchial asthma and rhinitis. The amount of IL-4 was measured and quantified by the enzyme immunosorbent detection method in the same manner.
The amount of IL-4 was measured and quantified by the enzyme immunosorbent detection method in the same manner.

[4] = system: eosinophils in bronchoalveolar lavage fluid; assay: Eosinophil increase in bronchoalveolar lavage fluid, ovalbumin-induced bronchial asthma and rhinitis mouse model; type: in vivo; conditions: 1 mg/kg IP, 8 times daily for 8 days, FIG. 9
Method: as §1
After anesthetizing the mouse by injecting a mixture of zoletil (250 mg/kg) and rompun (50 mg/kg) intraperitoneally, a 20-gauge catheter was inserted into the trachea by puncturing the trachea with a knife, and 0.6 mL of PBS at a time was injected-collected three times, and the collection rate was adjusted to 80%. The collected bronchoalveolar lavage fluid was centrifuged at 4° C., 3000 rpm for 10 minutes, and the cell precipitate was resuspended in 0.1 mL of PBS. 20 μL of the suspension was analyzed for the composition of blood cells using a fully automatic hematology analyzer (HEMAVET 950 FS, Drew Scientific, Inc.).

IL-13 = IL-13 secretion in bronchoalveolar lavage fluid, ovalbumin-induced bronchial asthma and rhinitis mouse model; type: in vivo; conditions: 1 mg/kg IP, 8 times daily for 8 days, FIG. 18
Method: as §1
After the end of the experiment, the amount of IL-13 in the supernatant obtained by centrifuging bronchoalveolar lavage fluid was measured and quantified by enzyme immunosorbent detection using mouse IL-13 ELISA kit (R&D system, USA).
Next, in order to confirm whether there is an effect of inhibiting IL-13 secretion even when administered in a small number of times, the dTBP2 of Preparative Example 4 and Example 3 was administered to the mouse model of Example 4-1 through intraperitoneal injection once in 4 days for a total of 2 times for 8 days inducing bronchial asthma and rhinitis. The amount of IL-13 was measured and quantified by the enzyme immunosorbent detection method in the same manner.
In addition, the dTBP2 of Preparative Example 4 and Example 3 was administered to the mouse model of Example 4-1 through intraperitoneal injection once on the 1st day of 8 days inducing bronchial asthma and rhinitis. The amount of IL-13 was measured and quantified by the enzyme immunosorbent detection method in the same manner.
The amount of IL-13 was measured and quantified by the enzyme immunosorbent detection method in the same manner.

O=C1CC2(CCCC2)CC(=O)N1CCCCN1CCN(c2ncccn2)CC1 [Buspirone, buspirone]
remaining at 0.5 h [1]: 6.15%
Mouse (%) remaining after reaction [2]: 0.10%

Example 1: dTBP2 (WYVYPSM) conjugated at the N-terminal with methoxy polyethylene glycol propionaldehyde (5 kDa) ({mPEG propionaldehyde 5 kDa}-WYVYPSM)
inhibition of IL-8 secretion by HRF (recombinant HRF): effective
inhibitory effect on the IL-8 secretion by HRF, comparison among the tested peptides (recombinant HRF): best

WYVYPSM [Preparative Example 4, WYVYPSM, reference compound]
reduction of IL-5 secretion (IL-5; 8 times daily for 8 days, FIG. 10): about 25%
IL-5 secretion inhibitory effect (IL-5; once on the 5th day of 8 days, FIG. 13): weak
AUC(0-inf) [3]: 30 ng·h/mL
AUC(0-t) [3]: 20 ng·h/mL
half-life ([3]; read-out: T1/2 (half life) (converted)): 1.91 h
Vd ([3]; read-out: Vss (steady-state volume of distribution)): 783 L/kg
inhibiting ovalbumin-specific IgE secretion in plasma (in words) (ovalbumin-specific IgE): very effective
reduction of ovalbumin-specific IgE secretion (ovalbumin-specific IgE; FIG. 22): about 50%
reduction of IL-4 secretion (IL-4; 8 times daily for 8 days, FIG. 14): about 50%
IL-4 secretion inhibitory effect (IL-4; once on the 5th day of 8 days, FIG. 17): weak
reduction of increased eosinophils vs positive control [4]: about 40%
reduction of IL-13 secretion (IL-13): about 30%

Methoxy polyethylene glycol propionaldehyde (5000) [Preparative Example 1]
inhibition of IL-8 secretion by HRF (recombinant HRF): effective

Example 2: dTBP2 (WYVYPSM) conjugated at the C-terminal with methoxy polyethylene glycol hydrazide (5 kDa) (WYVYPSM-{mPEG hydrazide 5 kDa})
inhibition of IL-8 secretion by HRF (recombinant HRF): effective
